{
  "source": "patent US9359297B2",
  "about": "“Spirolactam derivatives and uses of same” (H. Lundbeck A/S, priority 2009, dated 2016)",
  "data": [
    {"biological_target": "mGluR5 (allosteric site, [3H]MPEP) (Homo sapiens, UniProt P41594)", "sequence (P41594 21-1212)": "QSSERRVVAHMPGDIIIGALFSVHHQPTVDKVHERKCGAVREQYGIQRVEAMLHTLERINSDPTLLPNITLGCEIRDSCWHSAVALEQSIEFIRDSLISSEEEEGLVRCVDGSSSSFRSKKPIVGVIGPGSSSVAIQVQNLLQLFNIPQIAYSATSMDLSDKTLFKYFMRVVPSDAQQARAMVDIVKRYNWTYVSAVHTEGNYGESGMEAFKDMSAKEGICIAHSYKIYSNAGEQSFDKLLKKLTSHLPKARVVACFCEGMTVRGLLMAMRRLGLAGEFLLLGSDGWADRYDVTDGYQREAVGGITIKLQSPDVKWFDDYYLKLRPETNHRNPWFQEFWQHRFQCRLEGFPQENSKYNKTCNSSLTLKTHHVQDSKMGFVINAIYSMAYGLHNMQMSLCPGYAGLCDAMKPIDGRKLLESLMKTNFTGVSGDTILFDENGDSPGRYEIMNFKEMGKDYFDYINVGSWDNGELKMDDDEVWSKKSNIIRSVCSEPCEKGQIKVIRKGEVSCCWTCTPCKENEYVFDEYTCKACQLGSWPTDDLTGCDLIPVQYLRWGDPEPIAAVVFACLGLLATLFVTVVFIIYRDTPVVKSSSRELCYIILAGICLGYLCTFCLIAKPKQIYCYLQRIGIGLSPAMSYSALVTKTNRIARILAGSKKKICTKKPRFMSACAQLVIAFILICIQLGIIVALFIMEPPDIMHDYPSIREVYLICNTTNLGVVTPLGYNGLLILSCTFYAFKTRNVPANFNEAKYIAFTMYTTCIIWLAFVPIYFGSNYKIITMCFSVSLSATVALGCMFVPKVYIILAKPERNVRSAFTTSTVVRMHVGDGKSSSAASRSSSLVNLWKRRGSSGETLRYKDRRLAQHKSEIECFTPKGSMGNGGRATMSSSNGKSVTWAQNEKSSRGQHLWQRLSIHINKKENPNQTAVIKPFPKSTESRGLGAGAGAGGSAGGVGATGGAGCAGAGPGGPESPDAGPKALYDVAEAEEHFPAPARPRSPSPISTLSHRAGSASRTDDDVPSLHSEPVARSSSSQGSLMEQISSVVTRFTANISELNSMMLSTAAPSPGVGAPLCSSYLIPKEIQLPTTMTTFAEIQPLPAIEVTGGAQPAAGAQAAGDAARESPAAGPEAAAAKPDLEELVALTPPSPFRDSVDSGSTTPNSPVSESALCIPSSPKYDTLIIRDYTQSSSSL", "assay": "[3H]MPEP radioligand filtration binding assay on membrane homogenates", "settings": "5 nM [3H]MPEP; Ki from IC50 by Cheng and Prusoff equation", "method": "Binding assays were performed as described in [J. A. O'Brien et al. Mol. Pharmacol., 2003, 64, 731-740] with slight modifications. Briefly, after thawing, the membrane homogenates were resuspended in 50 mM Tris-HCl, 0.9% NaCl binding buffer at pH 7.4 to a final assay concentration of 40 μg protein/well for [^3H]2-methyl-6-phenylethynyl-pyridine ([^3H] MPEP) (American Radiolabeled Chemicals, Inc., St. Louis, Mo.) filtration binding. Incubations included 5 nM [^3H] MPEP, membranes and either buffer or varying concentrations of compound. Samples were incubated for 60 min at room temperature with shaking. Non-specific binding was defined with 10 μM MPEP. After incubation, samples were filtered over a GF/C filter (presoaked in 0.25% polyethyleneimine (PEI)) and then washed 4 times using a Tomtec® Harvester 96® Mach III cell harvester (Tomtec, Hamden, Conn.) with 0.5 mL ice-cold 50 mM Tris-HCl (pH 7.4).\nIC50 values were derived from the inhibition curve and Ki values were calculated according to the Cheng and Prusoff equation of Ki=IC50/(1+[L]/Kd) described in [Y. Cheng and W. H. Prusoff Biochem. Pharmacol. 1973, 22, 3099-3108] where [L] is the concentration of radioligand and Kd is its dissociation constant at the receptor, derived from the saturation isotherm.", "units": {"Ki": "nM"}, "values": [
      {"smiles": "O=C(N[C@H]1CCC[C@]2(CCN(c3cccc(Cl)c3)C2=O)C1)c1ccccn1", "note": "(racemic) [Example 2, cis-pyridine-2-carboxylic acid [2-(3-chloro-phenyl)-1-oxo-2-aza-spiro[4.5]dec-7-yl]-amide]", "Ki": 250},
      {"smiles": "Cc1cccc(C(=O)N[C@H]2CCC[C@]3(CCN(c4cccc(Cl)c4)C3=O)C2)n1", "note": "(relative stereo) [Example 4, cis-6-Methyl-pyridine-2-carboxylic acid [2-(3-chloro-phenyl)-1-oxo-2-aza-spiro[4.5]dec-7-yl]-amide]", "Ki": 74},
      {"smiles": "Cc1cccc(C(=O)N[C@H]2CCC[C@]3(CCN(c4cccc(C)n4)C3=O)C2)n1", "note": "(relative stereo) [Example 23, cis-6-Methyl-pyridine-2-carboxylic acid [2-(6-methyl-pyridin-2-yl)-1-oxo-2-aza-spiro[4.5]dec-7-yl]-amide]", "Ki": 190}
    ]},
    {"biological_target": "T1, rat metabotropic glutamate receptor 5 (rmGluR5) (Rattus norvegicus, UniProt P31424)", "T1 construct": "expressed in transfected cells", "T1 sequence (P31424 21-1203)": "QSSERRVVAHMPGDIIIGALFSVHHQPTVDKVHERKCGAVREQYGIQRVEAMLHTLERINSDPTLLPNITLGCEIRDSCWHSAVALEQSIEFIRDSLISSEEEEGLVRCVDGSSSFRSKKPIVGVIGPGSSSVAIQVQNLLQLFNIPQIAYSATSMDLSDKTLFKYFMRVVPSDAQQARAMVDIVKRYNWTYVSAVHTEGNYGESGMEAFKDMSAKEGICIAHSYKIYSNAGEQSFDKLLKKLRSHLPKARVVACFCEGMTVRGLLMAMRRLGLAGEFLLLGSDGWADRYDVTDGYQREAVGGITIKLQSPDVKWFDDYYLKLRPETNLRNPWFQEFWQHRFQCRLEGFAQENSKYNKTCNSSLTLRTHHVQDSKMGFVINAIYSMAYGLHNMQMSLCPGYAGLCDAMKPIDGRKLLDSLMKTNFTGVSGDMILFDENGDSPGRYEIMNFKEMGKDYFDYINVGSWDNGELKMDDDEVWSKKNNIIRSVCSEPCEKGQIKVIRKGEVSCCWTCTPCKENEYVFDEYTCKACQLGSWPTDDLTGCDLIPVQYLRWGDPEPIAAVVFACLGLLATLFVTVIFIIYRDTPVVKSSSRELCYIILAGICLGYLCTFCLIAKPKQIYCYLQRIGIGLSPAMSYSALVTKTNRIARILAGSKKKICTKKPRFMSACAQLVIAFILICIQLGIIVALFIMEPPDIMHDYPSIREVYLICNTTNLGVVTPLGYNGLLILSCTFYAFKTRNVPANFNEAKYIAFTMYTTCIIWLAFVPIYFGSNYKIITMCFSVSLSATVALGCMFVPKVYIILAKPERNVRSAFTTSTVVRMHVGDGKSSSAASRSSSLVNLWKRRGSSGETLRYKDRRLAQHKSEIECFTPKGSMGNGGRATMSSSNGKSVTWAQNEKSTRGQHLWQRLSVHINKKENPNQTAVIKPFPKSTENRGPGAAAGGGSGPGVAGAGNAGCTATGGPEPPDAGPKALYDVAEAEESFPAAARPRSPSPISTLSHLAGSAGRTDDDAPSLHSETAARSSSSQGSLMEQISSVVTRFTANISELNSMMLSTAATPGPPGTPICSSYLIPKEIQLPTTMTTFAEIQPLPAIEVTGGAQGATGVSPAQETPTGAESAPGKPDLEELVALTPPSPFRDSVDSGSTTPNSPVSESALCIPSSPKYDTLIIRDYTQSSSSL", "assay": "Calcium mobilization (FLIPR) assay for negative allosteric modulation, EC80 glutamate, rmGluR5 in HEK 293", "assay_type": "cell-based", "settings": "HEK293; rmGluR5, inhibition of EC80 glutamate response; read-out: FLIPR maximum inhibition", "method": "The cDNA for rat metabotropic glutamate receptor 5 (rmGluR5) and the cDNA for human metabotropic glutamate receptor 5 (hmGluR5) were generous gifts from S. Nakanishi (Kyoto University, Kyoto, Japan). The rmGluR5 or hmGluR5 was stably expressed in a HEK 293 cell line and grown in Dulbecco's Modified Eagle Medium (DMEM) (Invitrogen, Carlsbad, Calif.) with supplements (10% bovine calf serum, 4 mM glutamine, 100 units/mL penicillin, 100 μg/mL streptomycin and 0.75 mM G1418) at 37° C., 5% CO2. Twenty-four hours prior to assay, cells were seeded into 384-well black wall microtiter plates coated with poly-D-lysine. Just prior to assay, media was aspirated and cells dye-loaded (25 μL/well) with 3 μM Fluo-4/0.01% pluronic acid in assay buffer (Hank's Balanced Saline Solution (HBSS)): 150 mM NaCl, 5 mM KCl, 1 mM CaCl2, 1 mM MgCl2, plus 20 mM N-2-Hydroxyethylpiperazine-N′-2-ethanesulfonic acid (HEPES), pH 7.4, 0.1% bovine serum albumin (BSA) and 2.5 mM probenicid) for 1 hour in 5% CO2 at 37° C. After excess dye was discarded, cells were washed in assay buffer and layered with a final volume equal to 30 μL/well. Basal fluorescence is monitored in a fluorometric imaging plate reader (FLIPR) (Molecular Devices, Sunnyvale, Calif.) with an excitation wavelength of 488 nm and an emission range of 500 to 560 nm. Laser excitation energy was adjusted so that basal fluorescence readings were approximately 10,000 relative fluorescent units. Cells were stimulated with an EC20 or an EC80 concentration of glutamate in the presence of a compound to be tested, both diluted in assay buffer, and relative fluorescent units were measured at defined intervals (exposure=0.6 sec) over a 3 min period at room temperature. Basal readings derived from negative controls were subtracted from all samples. Maximum change in fluorescence was calculated for each well. Concentration-response curves derived from the maximum change in fluorescence were analyzed by nonlinear regression (Hill equation). A negative modulator can be identified from these concentration-response curves if a compound produces a concentration dependent inhibition of the EC80 glutamate response.", "units": {"Emax": "%"}, "values": [
      {"smiles": "O=C(N[C@H]1CCC[C@]2(CCN(c3cccc(Cl)c3)C2=O)C1)c1ccccn1", "note": "(racemic) [Example 2, cis-pyridine-2-carboxylic acid [2-(3-chloro-phenyl)-1-oxo-2-aza-spiro[4.5]dec-7-yl]-amide]", "Emax": "81 to 99"},
      {"smiles": "Cc1cccc(C(=O)N[C@H]2CCC[C@]3(CCN(c4cccc(Cl)c4)C3=O)C2)n1", "note": "(relative stereo) [Example 4, cis-6-Methyl-pyridine-2-carboxylic acid [2-(3-chloro-phenyl)-1-oxo-2-aza-spiro[4.5]dec-7-yl]-amide]", "Emax": "81 to 99"},
      {"smiles": "Cc1cccc(C(=O)N[C@H]2CCC[C@]3(CCN(c4cccc(C)n4)C3=O)C2)n1", "note": "(relative stereo) [Example 23, cis-6-Methyl-pyridine-2-carboxylic acid [2-(6-methyl-pyridin-2-yl)-1-oxo-2-aza-spiro[4.5]dec-7-yl]-amide]", "Emax": "81 to 99"},
      {"smiles": "O=C(N[C@H]1CCC[C@]2(CCN(c3cc(F)ccn3)C2=O)C1)c1cccc(F)c1", "note": "(relative stereo) [Example 36, cis-3-Fluoro-N-[2-(4-fluoro-pyridin-2-yl)-1-oxo-2-aza-spiro[4.5]dec-7-yl]-benzamide]", "Emax": "81 to 99"},
      {"smiles": "Cc1ccnc(N2CC[C@]3(CCC[C@H](NC(=O)c4cccc(F)c4)C3)C2=O)n1", "note": "(relative stereo) [Example 37, cis-3-Fluoro-N-[2-(4-methyl-pyrimidin-2-yl)-1-oxo-2-aza-spiro[4.5]dec-7-yl]-benzamide]", "Emax": "81 to 99"},
      {"smiles": "Cc1cncc(N2CC[C@]3(CCC[C@H](NC(=O)c4cccc(F)c4)C3)C2=O)n1", "note": "(relative stereo) [Example 38, cis-3-Fluoro-N-[2-(6-methyl-pyrazin-2-yl)-1-oxo-2-aza-spiro[4.5]dec-7-yl]-benzamide]", "Emax": "81 to 99"},
      {"smiles": "Cc1cncc(N2CC[C@]3(CCC[C@H](NC(=O)c4ccccn4)C3)C2=O)n1", "note": "(relative stereo) [Example 39, cis-Pyridine-2-carboxylic acid [2-(6-methyl-pyrazin-2-yl)-1-oxo-2-aza-spiro [4.5]dec-7-yl]-amide]", "Emax": "81 to 99"},
      {"smiles": "Cc1cccc(C(=O)N[C@H]2CCC[C@]3(CCN(c4cncc(C)n4)C3=O)C2)n1", "note": "(relative stereo) [Example 40, cis-6-Methyl-pyridine-2-carboxylic acid [2-(6-methyl-pyrazin-2-yl)-1-oxo-2-aza-spiro[4.5]dec-7-yl]-amide]", "Emax": "81 to 99"},
      {"smiles": "Cc1cccc(C(=O)N[C@H]2CCC[C@]3(CCN(c4cccc(C#N)n4)C3=O)C2)n1", "note": "(relative stereo) [Example 43, cis-6-Methyl-pyridine-2-carboxylic acid [2-(6-cyano-pyridin-2-yl)-1-oxo-2-aza-spiro[4.5]dec-7-yl]-amide]", "Emax": "81 to 99"},
      {"smiles": "Cc1cccc(C(=O)N[C@H]2CCC[C@]3(CCN(c4ccccc4)C3=O)C2)n1", "note": "(relative stereo) [Example 46, cis-6-Methyl-pyridine-2-carboxylic acid (1-oxo-2-phenyl-2-aza-spiro[4.5]dec-7-yl)-amide]", "Emax": "81 to 99"},
      {"smiles": "Cc1cccc(N2CC[C@]3(CCC[C@H](NC(=O)c4cccc(C)n4)C3)C2=O)c1", "note": "(relative stereo) [Example 47, cis-6-Methyl-pyridine-2-carboxylic acid (1-oxo-2-m-tolyl-2-aza-spiro[4.5]dec-7-yl)-amide]", "Emax": "81 to 99"},
      {"smiles": "Cc1ccnc(N2CC[C@]3(CCC[C@H](NC(=O)c4cccc(C)n4)C3)C2=O)c1", "note": "(relative stereo) [Example 48, cis-6-Methyl-pyridine-2-carboxylic acid [2-(4-methyl-pyridin-2-yl)-1-oxo-2-aza-spiro[4.5]dec-7-yl]-amide]", "Emax": "81 to 99"},
      {"smiles": "Cc1ccc(N2CC[C@]3(CCC[C@H](NC(=O)c4cccc(C)n4)C3)C2=O)nc1", "note": "(relative stereo) [Example 49, cis-6-Methyl-pyridine-2-carboxylic acid [2-(5-methyl-pyridin-2-yl)-1-oxo-2-aza-spiro[4.5]dec-7-yl]-amide]", "Emax": "81 to 99"},
      {"smiles": "Cc1cccc(C(=O)N[C@H]2CCC[C@]3(CCN(c4ncccc4C)C3=O)C2)n1", "note": "(relative stereo) [Example 50, cis-6-Methyl-pyridine-2-carboxylic acid [2-(3-methyl-pyridin-2-yl)-1-oxo-2-aza-spiro[4.5]dec-7-yl]-amide]", "Emax": "81 to 99"},
      {"smiles": "Cc1cccc(C(=O)N[C@H]2CCC[C@]3(CCN(c4ccccc4F)C3=O)C2)n1", "note": "(relative stereo) [Example 51, cis-6-Methyl-pyridine-2-carboxylic acid [2-(2-fluoro-phenyl)-1-oxo-2-aza-spiro[4.5]dec-7-yl]-amide]", "Emax": "81 to 99"},
      {"smiles": "Cc1cc(N2CC[C@]3(CCC[C@H](NC(=O)c4cccc(C)n4)C3)C2=O)ccn1", "note": "(relative stereo) [Example 52, cis-6-Methyl-pyridine-2-carboxylic acid [2-(2-methyl-pyridin-4-yl)-1-oxo-2-aza-spiro[4.5]dec-7-yl]-amide]", "Emax": "81 to 99"},
      {"smiles": "N#Cc1cccc(N2CC[C@]3(CCC[C@H](NC(=O)c4cccc(F)c4)C3)C2=O)n1", "note": "(relative stereo) [Example 53, cis-N-[2-(6-Cyano-pyridin-2-yl)-1-oxo-2-aza-spiro[4.5]dec-7-yl]-3-fluoro-benzamide]", "Emax": "81 to 99"},
      {"smiles": "O=C(N[C@H]1CCC[C@]2(CCN(c3cc(F)cc(F)c3)C2=O)C1)c1ccccn1", "note": "(relative stereo) [Example 54, cis-Pyridine-2-carboxylic acid [2-(3,5-difluoro-phenyl)-1-oxo-2-aza-spiro [4.5]dec-7-yl]-amide]", "Emax": "81 to 99"},
      {"smiles": "Cc1cncc(C(=O)N[C@H]2CCC[C@]3(CCN(c4cc(F)cc(F)c4)C3=O)C2)n1", "note": "(relative stereo) [Example 55, cis-6-Methyl-pyrazine-2-carboxylic acid [2-(3,5-difluoro-phenyl)-1-oxo-2-aza-spiro [4.5]dec-7-yl]-amide]", "Emax": "81 to 99"},
      {"smiles": "O=C(N[C@H]1CCC[C@]2(CCN(c3cc(F)cc(F)c3)C2=O)C1)c1cnccn1", "note": "(relative stereo) [Example 56, cis-Pyrazine-2-carboxylic acid [2-(3,5-difluoro-phenyl)-1-oxo-2-aza-spiro [4.5]dec-7-yl]-amide]", "Emax": "81 to 99"},
      {"smiles": "Cc1nccc(C(=O)N[C@H]2CCC[C@]3(CCN(c4ccc(F)cn4)C3=O)C2)n1", "note": "(relative stereo) [Example 57, cis-2-Methyl-pyrimidine-4-carboxylic acid [2-(5-fluoro-pyridin-2-yl)-1-oxo-2-aza-spiro [4.5]dec-7-yl]-amide]", "Emax": "81 to 99"},
      {"smiles": "O=C(N[C@H]1CCC[C@]2(CCN(c3cccc(Cl)c3)C2=O)C1)c1ccccn1", "note": "(single isomer, unassigned) [Example 6]", "Emax": "81 to 99"},
      {"smiles": "O=C(N[C@H]1CCC[C@@]2(CCN(c3cccc(Cl)c3)C2=O)C1)c1ccccn1", "note": "[Example 1, trans-Pyridine-2-carboxylic acid [2-(3-chloro-phenyl)-1-oxo-2-aza-spiro[4.5]dec-7-yl]amide]", "Emax": "81 to 99"},
      {"smiles": "Cc1cccc(N2CCC3(CCCC(NC(=O)c4cccc(Cl)c4)C3)C2=O)n1", "note": "(centres unmarked) [Example 8, 3-Chloro-N-[2-(6-methyl-pyridin-2-yl)-1-oxo-2-aza-spiro[4.5]dec-7-yl]-benzamide]", "Emax": "81 to 99"},
      {"smiles": "Cc1cccc(N2CC[C@@]3(CCC[C@@H](NC(=O)c4cccc(F)c4)C3)C2=O)n1", "note": "[Example 28, 3-Fluoro-N-[(5R,7R)-2-(6-methyl-pyridin-2-yl)-1-oxo-2-aza-spiro[4.5]dec-7-yl]-benzamide]", "Emax": "81 to 99"},
      {"smiles": "Cc1cccc(C(=O)N[C@H]2CCC[C@]3(CCN(c4ccccn4)C3=O)C2)n1", "note": "[Example 45, 6-Methyl-pyridine-2-carboxylic acid (1-oxo-2-pyridin-2-yl-2-aza-spiro[4.5]dec-7-yl)-amide]", "Emax": "81 to 99"}
    ]}
  ]
}
